What was measured:
female rats = assay: rhRLX for 5 days in female rats with infusion of ETB receptor antagonist RES-701-1 or its vehicle; assay type: in vivo, rat
Procedure: After surgical recovery, an osmotic minipump (model 2ML1, Alza Co., Palo Alto Calif.) containing either recombinant human relaxin (rhRLX; n=9 rats) or vehicle (n=8) was implanted subcutaneously on the back using light ether anesthesia. The infusion rate of rhRLX was 4 μg/hour. Experiments were conducted on day 5 of rhRLX or vehicle administration. MAP and renal function were measured as described above.
The technique of urine collection was again reliable. After reaching steady-state, the excretion rates of IN and PAH at baseline were 99±3 and 100±2% of their respective infusions for the rats administered rhRLX, and 100±2 and 99±2% for those given vehicle. Following the determination of baseline MAP and renal function, an infusion of RES-701-1, a selective endothelin type B (ETB) receptor antagonist (Conrad et al. (1999) Am. J. Physiol. 272:F767-F776; and Tanaka et al. (1994) Mol. Pharmacol. 45:724-730), was started at a rate of 10 μg/minute (flow rate 12 μl/minute) through the venous catheter. […] At the end of the experiment, 1.0 ml of blood was collected for determination of serum rhRLX.
In an additional three rats each administered rhRLX or vehicle, identical experimental procedures as described above were applied, except that the vehicle for RES-701-1 was infused instead of RES-701-1.

[1] = Serum rhRLX, quantitative sandwich immunoassay (Example 2); assay type: in vivo, rat; details: 4 μg/hour
From the text: The technique of urine collection has proven to be reliable. Conrad and Colpoys (1986) J. Clin. Invest. 77:236-245; Danielson and Conrad (1995) J. Clin. Invest. 96:482-490; and Danielson and Conrad (1996) Circ. Res. 79:1161-1166. Indeed, after reaching steady-state in this study, the excretion rates of IN and PAH were 91±3 and 100±4% of their respective infusions. After measuring baseline mean arterial pressure and renal function, an osmotic minipump (model 2ML1, Alza Co., Palo Alto Calif.) containing either recombinant human relaxin (rhRLX; n=12 rats) or vehicle (n=7) was implanted subcutaneously on the back using light ether anesthesia. […] Five days later, mean arterial pressure (MAP), glomerular filtration rate (GFR), effective renal plasma flow (ERPF), and other parameters were again assessed as describe above. At this time, the excretion rates of IN and PAH were 91±3 and 98±2% of their respective infusion rates. […]
Inulin concentration in plasma and urine was measured by the anthrone method, and PAH was determined by the method of Bratton and Marshall as modified by Smith. […] Plasma sodium was measured by a Kodak Ektachem Instrument (Rochester, N.Y.). Plasma osmolality was determined by freezing point depression (Advanced Osmometer, Model 3MO, Advanced Instruments, Needham Heights Mass.). […] The rhRLX in serum was measured using a quantitative sandwich immunoassay, again in a blinded fashion. […]

[2] = tested on: human VEGF165, VEGF121, bFGF and HGF transcripts in human cardiac cells; assay: Human cardiac cells: quantitative RT-PCR after relaxin treatment in vitro; assay type: cell-based
From the text: Oligonucleotides were designed to rat or human bFGF, human VEGF165 amino acid or 121 amino acid isoforms, and their respective rat homologues (VEGF164 and VEGF120), and human HGF (for use with the PE Applied Biosystems “GeneAmp PCR System 9600”). Rat and human GAPDH primers and probes were purchased from BioSource International Inc. and PE Applied Biosystems, respectively. Tissue samples and monolayer cells were suspended in RNA STAT-60 (Tel-Test, Inc., Friendswood, Tex.) and processed following vendor instructions. Reverse transcription-polymerase chain reaction (RT-PCR) was performed using either rat or human total RNA as template. 150 ng of total RNA was used for the analysis of VEGF, bFGF and HGF mRNA expression; 10 ng of total RNA was used for GAPDH mRNA expression. Reverse transcription-polymerase chain reaction (RT-PCR) reagents were purchased from PE Biosystems (Foster City, Calif.).
To determine if the effects of relaxin observed in the rat were also seen in human cells, total RNA from cardiac cells was extracted following treatment of cells with 1, 10, and 100 ng/ml relaxin for 24 hours. Human cardiac cells were cultured for 24 hours either without or with relaxin (1-100 ng/ml). Untreated cells were incubated for the same 24 hour period under hypoxic (2% O2) conditions. Using 150 ng of total RNA for human VEGF and bFGF transcripts and 10 ng of total RNA for GAPDH transcripts, primer/probe sets were used to generate RT-PCR products for human VEGF 165aa and 121aa isoforns and human bFGF. Data were analyzed using Sequence Detector v1.6.3 software (Applied Biosystems/PE). VEGF and bFGF expression levels are graphed relative to GAPDH transcript levels. Data are shown as means±SEM, where n=3 per treatment group; *p<0.05; Student-Newman-Keuls test. […] Absolute baseline levels of bFGF mRNA transcripts expressed by these cells were approximately 2-fold greater than those of either the VEGF121 or the VEGF165 isoforms. Total RNA from cells incubated under hypoxic conditions was analyzed as a positive control for the stimulation of VEGF isoforms. As predicted, mRNA transcript levels for both VEGF isoforms increased 220% over untreated control levels following 24 hr exposure to hypoxia, as shown in FIG. 6. bFGF expression was not induced by hypoxia. […] Relaxin had no effect on cellular proliferation, as assessed by ^3H-thymidine incorporation, on cellular morphology, or on desmin or vimentin staining patterns.

[3] = rhRLX day 5, V, vehicle for RES-701-1

## rhRLX: recombinant human relaxin, identical in amino acid sequence to the product of the human H2 gene; A chain of 24, B chain of 29 amino acids
Female rats; rhRLX day 5, B, baseline
  ERPF: 11220
  ERVR: 6.67
  GFR: 3082
  MAP: 112 ± 7
Female rats; [3]
  ERPF: 10464
  ERVR: 6.97
  GFR: 3112
  MAP: 115 ± 8
Female rats; rhRLX for 5 days (FIG. 4)
  ERPF at baseline compared to vehicle infusion: significantly increased
  ERVR reduction at baseline compared to vehicle infusion: 20-30%
  GFR at baseline compared to vehicle infusion: significantly increased
  MAP at baseline compared to vehicle infusion: not significantly affected
[1]; female rats, day 5
  mean serum concentration of rhRLX: 16.6 ± 1.5 ng/mL
[1]; male rats, day 5, n=12
  mean serum concentration of rhRLX: 12.3 ± 0.7 ng/mL
[2]; 100 ng/ml, 24 hours
  Basic FGF expression, maximum elevation over baseline: 2.2 fold
  VEGF121 mRNA, maximum increase in expression over untreated controls: 3 fold
  VEGF165 mRNA, maximum increase in expression over untreated controls: 2.3 fold
[2]; untreated vs relaxin treated cells
  Transcripts for human HGF: no difference in expression

Source: patent publication US6723702B2, “Use of relaxin treat diseases related to vasoconstriction” (RAS Medical, Inc., priority 2000, dated 2004)
